Reference: PMC4894417, “Quantitative High-Throughput Profiling of Environmental Chemicals and Drugs that Modulate Farnesoid X Receptor” (Scientific Reports, 2014)
Read-outs that look alike come from different tables or passages of the source.

What was measured:
human FXR [1] = target: T1, human FXR (Homo sapiens, UniProt Q96RI1); assay: FXR-bla reporter gene assay, antagonist mode (CDCA-induced transactivation); conditions: for FXR antagonist activity: FXR-bla assay, CDCA-induced; for FXR-bla, antagonist Efficacy: Table 1, inhibition as percent of positive control (guggulsterone), 50 μM CDCA
[2] = system: FXR-UAS-bla HEK293T cells; assay: Cell viability assay (CellTiter Glo) in the same well as FXR-bla; conditions: for IC50: read-out: Cytotoxicity IC50
human FXR [3] = target: T1, human FXR; assay: FXR-bla reporter gene assay, agonist mode (qHTS); conditions: for FXR agonist mode EC50 / EC50: Table S1, primary screening; for FXR-bla, agonist EC50: Table 1, confirmed compounds, mean ± SD of 3 experiments; for EC50: read-out: FXR agonist mode EC50
FXR-LBD [4] = target: T2, FXR-LBD (Homo sapiens, UniProt Q96RI1); assay: FXR TR-FRET coactivator recruitment assay, antagonist mode (50 μM CDCA); assay type: biochemical; conditions: Table 1; in the presence of 50 μM CDCA
T2 construct: The glutathione S-transferase (GST)-tagged FXR-LBD protein; purchased Life Technologies
T2 sequence (Q96RI1 262-486 limits assumed): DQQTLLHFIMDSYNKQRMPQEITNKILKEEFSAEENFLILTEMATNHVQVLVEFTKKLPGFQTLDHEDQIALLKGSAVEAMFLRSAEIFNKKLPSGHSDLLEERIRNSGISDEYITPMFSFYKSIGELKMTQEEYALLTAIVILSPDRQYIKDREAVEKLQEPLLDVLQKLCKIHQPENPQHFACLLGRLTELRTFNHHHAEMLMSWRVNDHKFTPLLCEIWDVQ

FXR-LBD [5] = target: T2, FXR-LBD; assay: FXR TR-FRET coactivator recruitment assay, agonist mode; assay type: biochemical; conditions: Table 1; coactivator SRC2-2 recruitment
vitamin D receptor (VDR) = vitamin D receptor (VDR) (Homo sapiens, UniProt P11473); assay: VDR-bla reporter gene assay (agonist and antagonist modes)
[6] = system: FXR-UAS-bla HEK293T cells
[7] = Table S1, primary screening, 50 µM CDCA
[8] = Table 1, mean ± SD of 3 experiments

T1 sequence (Q96RI1 with tags, fused parts or gaps limits assumed): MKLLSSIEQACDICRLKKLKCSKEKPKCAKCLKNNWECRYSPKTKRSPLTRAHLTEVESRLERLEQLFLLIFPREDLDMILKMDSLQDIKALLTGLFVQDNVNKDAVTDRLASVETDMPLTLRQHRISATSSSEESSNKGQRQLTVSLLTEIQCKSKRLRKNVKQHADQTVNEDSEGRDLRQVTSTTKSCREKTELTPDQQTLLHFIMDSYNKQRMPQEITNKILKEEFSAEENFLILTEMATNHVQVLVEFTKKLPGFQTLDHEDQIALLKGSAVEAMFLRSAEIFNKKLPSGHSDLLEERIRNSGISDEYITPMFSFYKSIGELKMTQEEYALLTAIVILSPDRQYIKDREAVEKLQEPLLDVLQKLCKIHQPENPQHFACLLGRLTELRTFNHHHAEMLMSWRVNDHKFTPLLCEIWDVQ
vitamin D receptor (VDR), sequence (P11473 with tags, fused parts or gaps limits assumed): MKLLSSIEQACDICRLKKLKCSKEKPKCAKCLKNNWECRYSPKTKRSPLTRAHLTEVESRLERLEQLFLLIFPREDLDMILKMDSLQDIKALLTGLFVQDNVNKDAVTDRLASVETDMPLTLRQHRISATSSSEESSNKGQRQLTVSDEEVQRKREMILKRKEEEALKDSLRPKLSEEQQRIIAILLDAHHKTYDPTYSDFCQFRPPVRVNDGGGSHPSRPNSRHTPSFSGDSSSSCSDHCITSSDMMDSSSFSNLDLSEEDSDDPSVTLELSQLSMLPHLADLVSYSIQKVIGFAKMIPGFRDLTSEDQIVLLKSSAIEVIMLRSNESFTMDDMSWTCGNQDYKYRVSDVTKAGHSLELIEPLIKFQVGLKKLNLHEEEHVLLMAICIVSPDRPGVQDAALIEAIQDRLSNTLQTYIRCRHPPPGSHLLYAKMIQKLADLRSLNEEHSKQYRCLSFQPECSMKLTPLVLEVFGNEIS

CC(=O)O[C@@]12CO[C@@H]1C[C@H](O)[C@@]1(C)C(=O)[C@H](O)C3=C(C)[C@@H](OC(=O)[C@H](O)[C@@H](NC(=O)OC(C)(C)C)c4ccccc4)C[C@@](O)([C@@H](OC(=O)c4ccccc4)[C@H]21)C3(C)C [Docetaxel]
IC50 (human FXR [1]): 0.008 ± 0.005 µM
FXR antagonist activity (human FXR [1]): antagonistic effects
FXR antagonist mode Efficacy (human FXR [1]; [7]): 35 ± 4%
Cytotoxicity IC50 ([2]; Table S1, primary screening): Inactive
FXR agonist mode EC50 (human FXR [3]): Inactive

CO[C@H]1C[C@H](O[C@H]2[C@H](C)O[C@@H](O[C@@H]3/C(C)=C/C[C@@H]4C[C@@H](C[C@]5(C=C[C@H](C)[C@@H](C6CCCCC6)O5)O4)OC(=O)[C@@H]4C=C(C)[C@@H](O)[C@H]5OC/C(=C\C=C\[C@@H]3C)[C@]54O)C[C@@H]2OC)O[C@@H](C)[C@@H]1O [Doramectin]
FXR antagonist Efficacy (human FXR [1]): 152 ± 10%
FXR antagonist mode Efficacy (human FXR [1]): 152 ± 10%
Cytotoxicity Efficacy ([2]; Table S1, primary screening): 116 ± 6%
Cytotoxicity Efficacy ([2]; Table S3): 116 ± 6%
IC50 ([2]; Table S1, primary screening): 11 µM
FXR agonist mode Efficacy (human FXR [3]): 62 ± 9%
FXR agonist Efficacy (human FXR [3]; Table S3): 62 ± 9%

Cn1cc(C2=C(c3cn(C4CCN(Cc5ccccn5)CC4)c4ccccc34)C(=O)NC2=O)c2ccccc21 [Enzastaurin]
IC50 (human FXR [1]): 10.2 ± 0.69 µM
FXR-bla, antagonist Efficacy (human FXR [1]): 110 ± 9%
Cell viability IC50 [2, 8]: Inactive
FXR TR-FRET, antagonist IC50 (FXR-LBD [4]): Inactive
FXR TR-FRET, agonist EC50 (FXR-LBD [5]): Inactive
FXR-bla, agonist EC50 (human FXR [3]): Inactive

CC(C)[C@H](C(=O)OC(C#N)c1cccc(Oc2ccccc2)c1)c1ccc(OC(F)F)cc1 (some centres unmarked) [Flucythrinate]
FXR antagonist mode Efficacy (human FXR [1]): 37 ± 9
IC50 (human FXR [1]; FXR antagonist mode IC50): 31.4 ± 20.5 µM
VDR activity (vitamin D receptor (VDR)): antagonist activity
Cytotoxicity IC50 ([2]; Table S1, primary screening): Inactive
FXR agonist mode EC50 (human FXR [3]): Inactive

CC(C)[C@H](Nc1ccc(C(F)(F)F)cc1Cl)C(=O)OC(C#N)c1cccc(Oc2ccccc2)c1 (some centres unmarked) [Fluvalinate]
FXR antagonist mode Efficacy (human FXR [1]): 53 ± 3
IC50 (human FXR [1]; FXR antagonist mode IC50): 30.3 ± 12 µM
Cytotoxicity IC50 ([2]; Table S1, primary screening): Inactive
FXR agonist mode EC50 (human FXR [3]): Inactive

COC(=O)C1=C(C)NC(C)=C(C(=O)OC(C)(C)CN(C)CCC(c2ccccc2)c2ccccc2)C1c1cccc([N+](=O)[O-])c1 (centres unmarked) [Lercanidipine]
IC50 (human FXR [1]): 15.5 ± 9.59 µM
FXR antagonist Efficacy (human FXR [1]; Table S3, 50 µM CDCA): -71 ± 10%
Cytotoxicity IC50 ([2]; Table S1, primary screening): Inactive
FXR agonist mode EC50 (human FXR [3]): Inactive

COc1cccc2c1C(=O)c1c(O)c3c(c(O)c1C2=O)C[C@@](O)(C(=O)CO)C[C@@H]3O[C@H]1C[C@H](N2CCO[C@H](OC)C2)[C@H](O)[C@H](C)O1 [Nemorubicin]
Cell viability IC50 [2]: Inactive

COCCOC(=O)C1=C(C)NC(C)=C(C(=O)OC(C)C)C1c1cccc([N+](=O)[O-])c1 (centres unmarked) [Nimodipine]
Cytotoxicity IC50 [6]: Inactive

COC(=O)C1=C(C)NC(C)=C(C(=O)OCC(C)C)C1c1ccccc1[N+](=O)[O-] (centres unmarked) [Nisoldipine]
IC50 (human FXR [1]): 32.6 ± 20.2 µM
FXR antagonist activity (human FXR [1]): antagonists
FXR antagonist mode Efficacy (human FXR [1]; [7]): 73 ± 29%
Cytotoxicity IC50 ([2]; Table S1, primary screening): Inactive
FXR agonist mode EC50 (human FXR [3]): Inactive

CCCCc1ccc2[nH]c(NC(=O)OC)nc2c1 [Parbendazole]
FXR antagonist mode Efficacy (human FXR [1]): 43 ± 3%
IC50 (human FXR [1]; FXR antagonist mode IC50): 0.16 ± 0.14 µM
Cytotoxicity IC50 ([2]; Table S1, primary screening): Inactive
FXR agonist mode EC50 (human FXR [3]): Inactive

CC(C)=CC1C(C(=O)OCc2cccc(Oc3ccccc3)c2)C1(C)C (centres unmarked) [Phenothrin]
FXR antagonist mode Efficacy (human FXR [1]): 27 ± 7
IC50 (human FXR [1]): 25.4 ± 11.8 µM
Cytotoxicity IC50 ([2]; Table S1, primary screening): Inactive
FXR agonist mode EC50 (human FXR [3]): Inactive

CC[C@]1(O)C[C@@H]2CN(CCc3c([nH]c4ccccc34)[C@@](C(=O)OC)(c3cc4c(cc3OC)N(C)[C@H]3[C@@](O)(C(=O)OC)[C@H](OC(C)=O)[C@]5(CC)C=CCN6CC[C@]43[C@@H]65)C2)C1 [Vinblastine]
IC50 (human FXR [1]): 0.1 ± 0.04 µM
FXR-bla, antagonist Efficacy (human FXR [1]): 57 ± 7%
FXR antagonist Efficacy (human FXR [1]; Table S3, 50 µM CDCA): 59 ± 2%
Cell viability IC50 [2, 8]: Inactive
FXR TR-FRET, antagonist IC50 (FXR-LBD [4]): Inactive
FXR TR-FRET, agonist EC50 (FXR-LBD [5]): Inactive
FXR-bla, agonist EC50 (human FXR [3]): Inactive

CCC1=C[C@@H]2CN(C1)Cc1c([nH]c3ccccc13)[C@@](C(=O)OC)(c1cc3c(cc1OC)N(C)[C@H]1[C@@](O)(C(=O)OC)[C@H](OC(C)=O)[C@]4(CC)C=CCN5CC[C@]31[C@@H]54)C2 [Vinorelbine]
Cytotoxicity Efficacy ([2]; Table S3): 41 ± 5%

AM580
FXR antagonist mode IC50 (human FXR [1]): Inactive
Cytotoxicity IC50 ([2]; Table S1, primary screening): Inactive
FXR agonist mode Efficacy (human FXR [3]): 68 ± 37
FXR agonist activity (human FXR [3]; FXR-bla assay): selectively induced transactivation of FXR
EC50 (human FXR [3]): 45.4 ± 3.07 µM

Emamectin
FXR antagonist mode Efficacy (human FXR [1]): 64 ± 19%
IC50 (human FXR [1]; read-out: FXR antagonist mode IC50): 5.81 ± 2.68 µM
Cytotoxicity Efficacy ([2]; Table S1, primary screening): 116 ± 14%
IC50 ([2]; Table S1, primary screening): 7.54 ± 1.29 µM
FXR agonist mode Efficacy (human FXR [3]): 56 ± 26%
EC50 (human FXR [3]): 24.6 ± 8.97 µM
